From the supplement of paper PMC11451515

Tested on: P12-Ichikawa
Assay: cell viability relative to DMSO control; higher = less cytotoxic
Details: 48 h
In short: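 Viability, reported as a per-plate percentage of DMSO wells with cell-free wells as background, came from CellTiter-Glo One luminescence. Reading took place after 48 h at 37°C. Before that, NOMO1 or SEM (500 cells/well) or P12-Ichikawa (1000 cells/well) leukemia cells, adapted for at least four passages in each medium, were seeded in 1536-well plates (5 μl) and pin-dosed with library compounds in DMSO, 47 μM to 0.79 nM over 11 threefold points.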

[1] = HPLM + 10% dialyzed FBS, 0.000781 µM
[2] = HPLM + 10% dialyzed FBS, 0.00234 µM
[3] = HPLM + 10% dialyzed FBS, 0.00702 µM
[4] = HPLM + 10% dialyzed FBS, 0.0211 µM
[5] = HPLM + 10% dialyzed FBS, 0.0632 µM
[6] = HPLM + 10% dialyzed FBS, 0.19 µM
[7] = HPLM + 10% dialyzed FBS, 0.569 µM
[8] = HPLM + 10% dialyzed FBS, 1.71 µM
[9] = HPLM + 10% dialyzed FBS, 5.12 µM
[10] = HPLM + 10% dialyzed FBS, 15.4 µM
[11] = HPLM + 10% dialyzed FBS, 46.1 µM
[12] = RPMI 5 mM glucose + 10% FBS, 0.000781 µM
[13] = RPMI 5 mM glucose + 10% FBS, 0.00234 µM
[14] = RPMI 5 mM glucose + 10% FBS, 0.00702 µM
[15] = RPMI 5 mM glucose + 10% FBS, 0.0211 µM
[16] = RPMI 5 mM glucose + 10% FBS, 0.0632 µM
[17] = RPMI 5 mM glucose + 10% FBS, 0.19 µM
[18] = RPMI 5 mM glucose + 10% FBS, 0.569 µM
[19] = RPMI 5 mM glucose + 10% FBS, 1.71 µM
[20] = RPMI 5 mM glucose + 10% FBS, 5.12 µM
[21] = RPMI 5 mM glucose + 10% FBS, 15.4 µM
[22] = RPMI 5 mM glucose + 10% FBS, 46.1 µM
[23] = RPMI 5 mM glucose + 10% dialyzed FBS, 0.000781 µM
[24] = RPMI 5 mM glucose + 10% dialyzed FBS, 0.00234 µM
[25] = RPMI 5 mM glucose + 10% dialyzed FBS, 0.00702 µM
[26] = RPMI 5 mM glucose + 10% dialyzed FBS, 0.0211 µM
[27] = RPMI 5 mM glucose + 10% dialyzed FBS, 0.0632 µM
[28] = RPMI 5 mM glucose + 10% dialyzed FBS, 0.19 µM
[29] = RPMI 5 mM glucose + 10% dialyzed FBS, 0.569 µM
[30] = RPMI 5 mM glucose + 10% dialyzed FBS, 1.71 µM
[31] = RPMI 5 mM glucose + 10% dialyzed FBS, 5.12 µM
[32] = RPMI 5 mM glucose + 10% dialyzed FBS, 15.4 µM
[33] = RPMI 5 mM glucose + 10% dialyzed FBS, 46.1 µM

Row | SMILES | cell viability [1] [%] | cell viability [2] [%] | cell viability [3] [%] | cell viability [4] [%] | cell viability [5] [%] | cell viability [6] [%] | cell viability [7] [%] | cell viability [8] [%] | cell viability [9] [%] | cell viability [10] [%] | cell viability [11] [%] | cell viability [12] [%] | cell viability [13] [%] | cell viability [14] [%] | cell viability [15] [%] | cell viability [16] [%] | cell viability [17] [%] | cell viability [18] [%] | cell viability [19] [%] | cell viability [20] [%] | cell viability [21] [%] | cell viability [22] [%] | cell viability [23] [%] | cell viability [24] [%] | cell viability [25] [%] | cell viability [26] [%] | cell viability [27] [%] | cell viability [28] [%] | cell viability [29] [%] | cell viability [30] [%] | cell viability [31] [%] | cell viability [32] [%] | cell viability [33] [%]
1 | CCCN[C@H]1CCc2nc(N)sc2C1 | 92.8 | 104 | 98 | 98.4 | 101 | 107 | 101 | 110 | 103 | 104 | 107 | 94.3 | 90.5 | 107 | 104 | 107 | 110 | 107 | 111 | 114 | 114 | 120 | 85.6 | 95.1 | 90.4 | 93.6 | 96 | 101 | 96.1 | 93.6 | 94.9 | 96.9 | 106
2 | CC[C@H]1OC(=O)[C@H](C)[C@@H](O[C@H]2C[C@@](C)(OC)[C@@H](O)[C@H](C)O2)[C@H](C)[C@@H](O[C@@H]2O[C@H](C)C[C@H](N(C)C)[C@H]2O)[C@](C)(OC)C[C@@H](C)C(=O)[C@H](C)[C@@H](O)[C@]1(C)O | 109 | 102 | 98 | 98.7 | 103 | 96.7 | 95.8 | 93.2 | 91.6 | 93.5 | 82.1 | 94.3 | 103 | 98.6 | 88.4 | 96.3 | 98.5 | 90.8 | 89.8 | 86 | 84.2 | 89.6 | 93.2 | 98.5 | 96.3 | 88 | 94.8 | 94.3 | 90.5 | 85.6 | 90.8 | 94.2 | 81.2
3 | C[C@H](NC(=O)Cc1cc(F)cc(F)c1)C(=O)N[C@H](C(=O)OC(C)(C)C)c1ccccc1 | 94 | 90.9 | 94.9 | 94.1 | 94.6 | 92.5 | 89 | 88.3 | 86.9 | 88 | 80.4 | 92.3 | 91.7 | 91.2 | 87 | 90.7 | 95.4 | 89.1 | 82.7 | 87.9 | 87.6 | 92.8 | 78.9 | 82.5 | 79.8 | 79.7 | 86.1 | 88.8 | 78.2 | 86.1 | 83.7 | 77.4 | 73.3
4 | CC(=O)OC[C@@H]1O[C@H]([C@H](OC(C)=O)[C@@H]1OC(C)=O)N2\C=C/C(=O)NC2=O | 119 | 120 | 128 | 122 | 114 | 120 | 110 | 110 | 113 | 106 | 71.8 | 121 | 117 | 121 | 116 | 117 | 108 | 102 | 113 | 108 | 114 | 98.3 | 120 | 106 | 116 | 111 | 111 | 111 | 111 | 108 | 99.7 | 104 | 92
5 | Oc1ccc(OCc2ccccc2)cc1 | 114 | 114 | 119 | 105 | 119 | 102 | 115 | 103 | 90.1 | 69.9 | 65.3 | 114 | 116 | 111 | 127 | 106 | 114 | 109 | 93.7 | 83.4 | 68.4 | 64.8 | 105 | 115 | 114 | 117 | 106 | 115 | 107 | 86.5 | 75.2 | 52.4 | 44.6
6 | CCCCCCNC(=O)N1\C=C(F)/C(=O)NC1=O | 122 | 124 | 123 | 127 | 121 | 129 | 126 | 124 | 113 | 107 | 89.3 |  |  |  |  |  |  |  |  |  |  |  | 108 | 118 | 122 | 122 | 127 | 117 | 129 | 121 | 116 | 91.8 | 81.8
7 | NC(=O)c1cccc(-c2cc(Nc3ccc(OC(F)(F)F)cc3)ncn2)c1 | 101 | 96.4 | 98.5 | 101 | 109 | 104 | 105 | 102 | 97 | 99.3 | 89.5 | 102 | 97.7 | 98 | 94.2 | 105 | 107 | 105 | 98.7 | 91.5 | 96.1 | 80.3 | 99.5 | 85.7 | 97.1 | 91.9 | 111 | 104 | 96.1 | 98.8 | 100 | 95.8 | 81.5
8 | CN1CCc2c(c3ccccc3n2Cc2ccc(C(=O)NO)cc2)C1 | 84.8 | 83.9 | 87.7 | 89.6 | 91.5 | 85 | 89.6 | 83.6 | 87.5 | 68 | 66.9 | 81 | 77.4 | 78.6 | 80.7 | 84.1 | 73.1 | 79.9 | 83.4 | 84.2 | 64.1 | 56.8 | 82.2 | 81.3 | 83.1 | 78.4 | 81.9 | 78 | 83.3 | 77.8 | 86.5 | 63.3 | 68.1
